Data reported in patent US11236059B2, “Targeted cytotoxic ratjadone derivatives and conjugates thereof” (HELMHOLTZ-ZENTRUM FUER INFEKTIONSFORSCHUNG GMBH, priority 2017, dated 2022).
Where two headings read alike, the source gives them in different places.

Key:
Format in all cases: cell-based
[1] = tested on: KB 3.1 (DSMZ ACC 158) cells; assay: Cell proliferation assay under folate free conditions; conditions: RPMI-medium without folic acid + 10% dialyzed fetal calf serum; MTT assay after 1, 2 and 5 days (day of the value not given); read-out: IC50 [nM] KB 3.1 (Folate-Ratjadone Conjugates)
Procedure: KB 3.1 (DSMZ ACC 158) cells were cultivated at 37° C. and 10% C002 in RMPI-medium without folic acid (Gibco) with 10% fetal calf serum (Gibco). 120 μL of suspended cells (100.000/mL) were seeded in wells of 96-well plates and after 24 h at 37° C. and 10% CO2 the medium was removed, the cells were washed with PBS and RPMI-medium without folic acid (Gibco)+10% dialyzed fetal calf serum (Sigma) were added to the cells, before after additional 24 h at 37° C. and 10% C002 60 μL of serial dilutions of the test compound were given to cells. After 1, 2 and 5 days of incubation growth inhibition (IC50) was determined using an MTT assay.^[64]

[2] = biological target: T1, CRM1 (Homo sapiens, UniProt O14980); assay: Monitoring export inhibitory activity (translocation biosensor, HeLaRevBio cells)
T1 construct: HeLa cells stably expressing a fluorescent translocation biosensor (HeLaRevBio); endogenous in cells; host or cells: HeLa (HeLaRevBio in A7; HeLa in A8)
Procedure: Export inhibitory ability of compounds was evaluated with the translocation biosensor system. This cellular assay depends on a recombinantly expressed fusion protein consisting of a nuclear localization signal (SV40-NLS), glutathione S-transferase (GST), green fluorescent protein (GFP) and a nuclear export signal (HIV1-RevNES). Due to the two transport signals (NLS/NES), the biosensor is permanently shuttling between nucleus and cytoplasm but resides prominently in the cytoplasm due to a comparatively stronger NES. Export inhibiting compound induce a nuclear accumulation of the GFP-signal^[65,66] Cell lines were maintained as recommended by the American Type Culture Collection in DMEM containing 5% glutamine (Thermo Fisher Scientific, Waltham, USA) supplemented with 10% FBS (Thermo Fisher Scientific, Waltham, USA). For quantifying the nuclear export inhibitory effect, HeLa cells stably expressing a fluorescent translocation biosensor (HeLaRevBio)^[67] were seeded into black 96 well μclear plates (Greiner, Germany). They next day compounds were added covering an appropriate concentration range. After 1h of incubation, cells were fixed in 4% PFA for 10 min and permeabilized with 0.1% Triton X 100 in PBS for 5 min. After washing with PBS nuclei were labeled with Hoechst H33342 (30 min 10 μg/ml). The intracellular distribution of the biosensor-dependent GFP signal was quantitatively evaluated with the high content imaging system ImageXpress MicroXLS (Molecular Devices, Sunnyvale, USA). By using the translocation enhanced application module (Molecular Devices, Sunnyvale, USA) the GFP-intensity was quantified in the cytoplasm and nuclear region. As final readout the difference of Mean Inner and Mean Outer Intensity was calculated. IC50s of nuclear export inhibition were calculated using Sigma Plot with four parameter logistics curve regression (Systat Software GmbH, Erkrath, Germany). […] The following day compounds were added at 125 nM final concentration.

[3] = tested on: A549 (DSMZ ACC 107) cells; assay: cells; conditions: growth inhibition, 5 days of incubation, MTT assay; read-out: IC50 [nM] A-549 (Gonadoliberin-Ratjadone Conjugates)
Procedure: (§1) 60 μL of serial dilutions of the test compound were given to 120 μL of suspended cells (50.000/mL) in wells of 96-well plates. After 5 days of incubation growth inhibition (IC50) was determined using an MTT assay.^[64]

[4] = tested on: MCF-7 (DSMZ ACC 115) cells; assay: cells
Procedure: as §1

[5] = tested on: SKOV-3 (DSMZ ATCC HTB 77) cells; assay: cells
Procedure: as §1

[6] = HeLa cells stably expressing translocation biosensor, 1h of incubation, read-out: IC50 [nM] CRM1 (nuclear export inhibition)

T1 sequence (O14980 whole entry): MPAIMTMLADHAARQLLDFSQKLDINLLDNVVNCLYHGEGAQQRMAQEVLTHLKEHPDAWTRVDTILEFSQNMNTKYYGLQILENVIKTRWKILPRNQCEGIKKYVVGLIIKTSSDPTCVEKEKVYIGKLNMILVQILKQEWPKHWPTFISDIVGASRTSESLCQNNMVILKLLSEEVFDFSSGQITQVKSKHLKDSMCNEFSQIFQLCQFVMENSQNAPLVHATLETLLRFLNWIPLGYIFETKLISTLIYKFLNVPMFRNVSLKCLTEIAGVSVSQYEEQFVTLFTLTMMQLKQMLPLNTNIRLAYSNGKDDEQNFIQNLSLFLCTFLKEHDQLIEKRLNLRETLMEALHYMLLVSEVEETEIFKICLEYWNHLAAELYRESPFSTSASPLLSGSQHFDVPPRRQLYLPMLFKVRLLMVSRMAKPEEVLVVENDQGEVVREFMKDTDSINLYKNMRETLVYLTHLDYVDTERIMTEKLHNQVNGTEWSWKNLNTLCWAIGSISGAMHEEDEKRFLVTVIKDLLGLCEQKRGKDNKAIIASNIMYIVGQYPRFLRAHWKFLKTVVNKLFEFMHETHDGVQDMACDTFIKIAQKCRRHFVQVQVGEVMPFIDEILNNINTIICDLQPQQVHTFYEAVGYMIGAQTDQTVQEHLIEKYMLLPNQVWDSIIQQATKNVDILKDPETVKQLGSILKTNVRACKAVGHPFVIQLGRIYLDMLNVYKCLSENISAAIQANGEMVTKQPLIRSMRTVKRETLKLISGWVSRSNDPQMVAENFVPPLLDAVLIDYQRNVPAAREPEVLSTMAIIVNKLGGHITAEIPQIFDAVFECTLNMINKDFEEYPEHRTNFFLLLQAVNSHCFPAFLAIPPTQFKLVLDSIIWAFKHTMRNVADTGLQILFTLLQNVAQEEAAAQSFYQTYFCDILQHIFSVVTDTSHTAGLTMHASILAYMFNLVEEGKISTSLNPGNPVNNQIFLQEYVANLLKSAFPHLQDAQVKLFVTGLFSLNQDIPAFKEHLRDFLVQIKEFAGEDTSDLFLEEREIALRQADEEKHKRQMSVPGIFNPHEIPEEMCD

SMILES	IC50 [1] [nM]	IC50 [3] [nM]	further results
C/C=C/[C@@H]1O[C@H]([C@@H](/C=C/C=C(\C)C[C@@H](C)/C=C(C)\C=C\[C@H]2CC=CC(=O)O2)NC(=O)OCc2ccc(NC(=O)[C@H](CCCNC(N)=O)NC(=O)[C@@H](NC(=O)OC[C@@H]3[C@@H]4CCc5nnn(CCC[C@H](NC(=O)CC[C@H](NC(=O)CC[C@H](NC(=O)c6ccc(NCc7cnc8nc(N)nc(O)c8n7)cc6)C(=O)O)C(=O)O)C(=O)O)c5CC[C@@H]43)C(C)C)cc2)C[C@@H](O)[C@@H]1C [FA-7-Val-Cit-PABA-16R-Aminoratjadone]	34.3	–	–
C/C=C/[C@@H]1O[C@H]([C@H](O)/C=C/C=C(\C)C[C@@H](C)/C=C(C)\C=C\[C@H]2CC=CC(=O)O2)C[C@@H](O)[C@@H]1C [Ratjadone A 1, (R)-6-((1E,3Z,5R,7E,9E,11R)-11-hydroxy-11-((2S,4R,5S,6S)-4-hydroxy-5-methyl-6-((E)-prop-1-en-1-yl)tetrahydro-2H-pyran-2-yl)-3,5,7-trimethylundeca-1,3,7,9-tetraen-1-yl)-5,6-dihydro-2H-pyran-2-one, reference compound]	–	–	IC50 [2, 6]: 1.2 nM
C/C=C/[C@@H]1O[C@H]([C@@H](/C=C/C=C(\C)C[C@@H](C)/C=C(C)\C=C\[C@H]2CC=CC(=O)O2)NC(=O)OCc2ccc(NC(=O)[C@H](CCCNC(N)=O)NC(=O)[C@@H](NC(=O)OC[C@@H]3[C@@H]4CCc5nnn(CCC[C@H](NC(=O)[C@@H](CC(=O)O)NC(=O)[C@@H](CC(=O)O)NC(=O)[C@@H](CC(=O)O)NC(=O)CC[C@H](NC(=O)c6ccc(NCc7cnc8nc(N)nc(O)c8n7)cc6)C(=O)O)C(=O)N[C@H](CC(=O)O)C(=O)N[C@H](CC(=O)O)C(=O)N[C@H](CCCCN)C(=O)O)c5CC[C@@H]43)C(C)C)cc2)C[C@@H](O)[C@@H]1C [FA-10-Val-Cit-PABA-16R-Aminoratjadone]	35.3	–	–
C/C=C/[C@@H]1O[C@H]([C@@H](/C=C/C=C(\C)C[C@@H](C)/C=C(C)\C=C\[C@H]2CC=CC(=O)O2)NC(=O)OCCc2cn(CCC[C@H](NC(=O)CC[C@H](NC(=O)CC[C@H](NC(=O)c3ccc(NCc4cnc5nc(N)nc(O)c5n4)cc3)C(=O)O)C(=O)O)C(=O)O)nn2)C[C@@H](O)[C@@H]1C [FA-7-16R-Aminoratjadone, N^2-(4-(((2-amino-4-hydroxypteridin-6-yl)methyl)amino)benzoyl)-N^5—((S)-1-carboxy-4-(((S)-1-carboxy-4-(4-(2-((((1R,2E,4E,7R,8Z,10E)-1-((2S,4R,5S,6S)-4-hydroxy-5-methyl-6-((E)-prop-1-en-1-yl)tetrahydro-2H-pyran-2-yl)-5,7,9-trimethyl-11-((R)-6-oxo-3,6-dihydro-2H-pyran-2-yl)undeca-2,4,8,10-tetraen-1-yl)carbamoyl)oxy)ethyl)-1H-1,2,3-triazol-1-yl)butyl)amino)-4-oxobutyl)-L-glutamine]	190	–	–
C/C=C/[C@@H]1O[C@H]([C@@H](/C=C/C=C(\C)C[C@@H](C)/C=C(C)\C=C\[C@H]2CC=CC(=O)O2)NC(=O)OCCc2cn(CCC[C@H](NC(=O)[C@H](Cc3ccc(O)cc3)NC(=O)[C@H](CO)NC(=O)[C@H](Cc3c[nH]c4ccccc34)NC(=O)[C@H](Cc3c[nH]cn3)NC(=O)[C@@H]3CCC(=O)N3)C(=O)N[C@@H](CC(C)C)C(=O)N[C@@H](CCCNC(=N)N)C(=O)N3CCC[C@H]3C(=O)NCC(N)=O)nn2)C[C@@H](O)[C@@H]1C [L-Orn-LHRH-16R-Aminoratjadone]	–	1600	IC50 [2]: 1060 nM
C/C=C/[C@@H]1O[C@H]([C@@H](/C=C/C=C(\C)C[C@@H](C)/C=C(C)\C=C\[C@H]2CC=CC(=O)O2)NC(=O)OCCc2cn(CCC[C@H](NC(=O)CC[C@H](NC(=O)c3ccc(NCc4cnc5nc(N)nc(O)c5n4)cc3)C(=O)O)C(=O)N[C@H](CCCCN)C(=O)O)nn2)C[C@@H](O)[C@@H]1C [FA-9-16R-Aminoratjadone, ((S)-2-((S)-4-(4-(((2-amino-4-hydroxypteridin-6-yl)methyl)amino)benzamido)-4-carboxybutanamido)-5-(4-(2-((((1R,2E,4E,7R,8Z,10E)-1-((2S,4R,5S,6S)-4-hydroxy-5-methyl-6-((E)-prop-1-en-1-yl)tetrahydro-2H-pyran-2-yl)-5,7,9-trimethyl-11-((R)-6-oxo-3,6-dihydro-2H-pyran-2-yl)undeca-2,4,8,10-tetraen-1-yl)carbamoyl)oxy)ethyl)-1H-1,2,3-triazol-1-yl)pentanoyl)-D-lysine]	47.6	–	–
C/C=C/[C@@H]1O[C@H]([C@@H](N)/C=C/C=C(\C)C[C@@H](C)/C=C(C)\C=C\[C@H]2CC=CC(=O)O2)C[C@@H](O)[C@@H]1C [16S-Amino-Ratjadone 12, (R)-6-((1E,3Z,5R,7E,9E,11 S)-11-amino-11-((2S,4R,5S,6S)-4-hydroxy-5-methyl-6-((E)-prop-1-en-1-yl)tetrahydro-2H-pyran-2-yl)-3,5,7-trimethylun-deca-1,3,7,9-tetraen-1-yl)-5,6-dihydro-2H-pyran-2-one]	–	–	IC50 [2, 6]: 2.8 nM
C/C=C/[C@@H]1O[C@H]([C@H](N)/C=C/C=C(\C)C[C@@H](C)/C=C(C)\C=C\[C@H]2CC=CC(=O)O2)C[C@@H](O)[C@@H]1C [16R-Amino-Ratjadone 11, (R)-6-((1E,3Z,5R,7E,9E,11R)-11-amino-11-((2S,4R,5S,6S)-4-hydroxy-5-methyl-6-((E)-prop-1-en-1-yl)tetrahydro-2H-pyran-2-yl)-3,5,7-trimethylundeca-1,3,7,9-tetra-en-1-yl)-5,6-dihydro-2H-pyran-2-one]	–	–	IC50 ([4]; Homo sapiens, MCF7, 120 h, read-out: IC50 [nM] MCF-7, growth inhibition, 5 days of incubation, MTT assay): 0.26 nM; IC50 ([4]; read-out: IC50 [nM] MCF-7, growth inhibition, 5 days of incubation, MTT assay): 0.36 nM; IC50 ([5]; Homo sapiens, SK-OV-3, 120 h, read-out: IC50 [nM] SK-OV-3, growth inhibition, 5 days of incubation, MTT assay): 0.61 nM; IC50 ([5]; read-out: IC50 [nM] SK-OV-3, growth inhibition, 5 days of incubation, MTT assay): 0.81 nM; IC50 [2, 6]: 2.7 nM
C/C=C/[C@@H]1O[C@H]([C@@H](/C=C/C=C(\C)C[C@@H](C)/C=C(C)\C=C\[C@H]2CC=CC(=O)O2)NC(=O)OCc2ccc(NC(=O)[C@H](CCCNC(N)=O)NC(=O)[C@@H](NC(=O)OC[C@@H]3[C@@H]4CCc5nnn(CCC[C@@H](NC(=O)[C@H](Cc6ccc(O)cc6)NC(=O)[C@H](CO)NC(=O)[C@H](Cc6c[nH]c7ccccc67)NC(=O)[C@H](Cc6c[nH]cn6)NC(=O)[C@@H]6CCC(=O)N6)C(=O)N[C@@H](CC(C)C)C(=O)N[C@@H](CCCNC(=N)N)C(=O)N6CCC[C@H]6C(=O)NNC(N)=O)c5CC[C@@H]43)C(C)C)cc2)C[C@@H](O)[C@@H]1C	–	12.8	–
C/C=C/[C@@H]1O[C@H]([C@@H](/C=C/C=C(\C)C[C@@H](C)/C=C(C)\C=C\[C@H]2CC=CC(=O)O2)NC(=O)OCc2ccc(NC(=O)[C@H](CCCNC(N)=O)NC(=O)[C@@H](NC(=O)OC[C@@H]3[C@@H]4CCc5nnn(CCC[C@@H](NC(=O)[C@H](Cc6ccc(O)cc6)NC(=O)[C@H](CO)NC(=O)[C@H](Cc6c[nH]c7ccccc67)NC(=O)[C@H](Cc6c[nH]cn6)NC(=O)[C@@H]6CCC(=O)N6)C(=O)N[C@@H](CC(C)C)C(=O)N[C@@H](CCCNC(=N)N)C(=O)N6CCC[C@H]6C(=O)NCC(N)=O)c5CC[C@@H]43)C(C)C)cc2)C[C@@H](O)[C@@H]1C	–	23	–
C/C=C/[C@@H]1O[C@H]([C@@H](/C=C/C=C(\C)C[C@@H](C)/C=C(C)\C=C\[C@H]2CC=CC(=O)O2)NC(=O)OCc2ccc(NC(=O)[C@H](CCCNC(N)=O)NC(=O)[C@@H](NC(=O)OCCc3cn(CCC[C@H](NC(=O)[C@H](Cc4ccc(O)cc4)NC(=O)[C@H](CO)NC(=O)[C@H](Cc4c[nH]c5ccccc45)NC(=O)[C@H](Cc4c[nH]cn4)NC(=O)[C@@H]4CCC(=O)N4)C(=O)N[C@@H](CC(C)C)C(=O)N[C@@H](CCCNC(=N)N)C(=O)N4CCC[C@H]4C(=O)NCC(N)=O)nn3)C(C)C)cc2)C[C@@H](O)[C@@H]1C	–	1200	–
